The values that follow come from patent publication US20150353495A1 (PORTOLA PHARMACEUTICALS, INC., priority 2010, published 2015).

Assay [1] has as its system JAK1/3 signaling to STAT6 in Ramos B cells. The experiment in a line: IL4 stimulation of JAK1/3 signaling to STAT6 in Ramos B cells (pSTAT6 Y641, FACS). It is filed as cell-based. Particulars: Homo sapiens; for inhibition at 0.2 µM: 0.2 uM compound, read-out: IL-4/STAT6 in Ramos Percent Inhibition at 0.2 uM; for inhibition at 1 µM: 1.0 uM compound, read-out: IL-4/STAT6 in Ramos Percent Inhibition at 1.0 uM. As to the method: IL4 stimulation of JAK1/3 signaling to STATE in Ramos B cells:
As an alternative strategy to measure effect of JAK3 inhibitors on JAK1/3 dependent cytokine signaling pathways, IL4 stimulation of the Ramos Burkett's B cell line is used. IL4 engages a receptor consisting of the IL4 receptor alpha chain and the common gamma chain. […] Ramos B cells are suspended in tissue culture media containing 10% fetal calf serum at 10×10̂6 cells/ml. 100 μl aliquots are pre-treated for 1 hour with various concentrations of compound, and then stimulated for 15 minutes with 15 ng IL4. The signaling reaction is terminated by fixing in 2% paraformaldehyde for 10 minutes at room temperature. Fixed cells are then washed and permeablized by suspension in 100% methanol at −80° C. Following overnight incubation at 4° C., cells are washed and resuspended in PBS containing 0.5% bovine serum albumin containing pSTAT6 Y641-PE conjugated antibody. After 1 hour incubation, cells are washed and the extent of STAT6 phosphorlyation in Ramos cells is measured by FACS analysis.

For a further assay, the target named is T1, JAK3 (Homo sapiens, UniProt P52333).
T1 construct: 5 μl of catalytic domain recombinant Kinase enzyme+Tyr peptide substrate (Invitrogen, CA); purchased Invitrogen
The experiment in a line: Z'-LYTE kinase assay JAK3. In kind it is biochemical. In outline: (§1)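 Z′-LYTE FRET, Tyr6 peptide, recombinant catalytic domain + ATP, 1 h RT, 1% DMSO final, duplicates; protease development 1 h RT; fluorescence read.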

The next assay addresses T2, JAK1 (Homo sapiens, UniProt P23458).
T2 construct: 5 μl of catalytic domain recombinant Kinase enzyme+Tyr peptide substrate (Invitrogen, CA); purchased Invitrogen
The experiment in a line: Z'-LYTE kinase assay JAK1. In kind it is biochemical. In outline:
as §1

Another assay has as its target T3, TYK2 (Homo sapiens, UniProt P29597).
T3 construct: 5 μl of catalytic domain recombinant Kinase enzyme+Tyr peptide substrate (Invitrogen, CA); purchased Invitrogen
T3 sequence (P29597 897-1176 limits assumed): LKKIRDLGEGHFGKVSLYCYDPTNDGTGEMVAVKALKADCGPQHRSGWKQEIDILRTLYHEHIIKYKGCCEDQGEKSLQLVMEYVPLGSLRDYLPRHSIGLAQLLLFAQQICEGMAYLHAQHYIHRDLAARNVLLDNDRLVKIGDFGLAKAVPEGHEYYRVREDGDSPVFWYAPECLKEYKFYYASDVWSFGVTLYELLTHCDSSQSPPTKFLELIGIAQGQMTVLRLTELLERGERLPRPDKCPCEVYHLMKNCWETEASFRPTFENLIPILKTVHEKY
The experiment in a line: Z'-LYTE kinase assay TYK2. In kind it is biochemical. In outline:
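IC50 derived by 4-parameter logistic fit of percent substrate phosphorylation relative to uninhibited wells. Tyr6 peptide phosphorylated by recombinant TYK2 catalytic domain for 1 h at room temperature (1% DMSO), cleaved by development protease 1 h, FRET emission ratio 445/520 nm.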

The next assay addresses T4, JAK2 (Homo sapiens, UniProt O60674).
T4 construct: 5 μl of catalytic domain recombinant Kinase enzyme+Tyr peptide substrate (Invitrogen, CA); purchased Invitrogen
The experiment in a line: Z'-LYTE kinase assay JAK2. It is filed as biochemical. The essentials: as §1

Where a name gives a salt, the structure may show the parent alone. Some results are limits rather than exact numbers.

T2 sequence (P23458 875-1153 limits assumed): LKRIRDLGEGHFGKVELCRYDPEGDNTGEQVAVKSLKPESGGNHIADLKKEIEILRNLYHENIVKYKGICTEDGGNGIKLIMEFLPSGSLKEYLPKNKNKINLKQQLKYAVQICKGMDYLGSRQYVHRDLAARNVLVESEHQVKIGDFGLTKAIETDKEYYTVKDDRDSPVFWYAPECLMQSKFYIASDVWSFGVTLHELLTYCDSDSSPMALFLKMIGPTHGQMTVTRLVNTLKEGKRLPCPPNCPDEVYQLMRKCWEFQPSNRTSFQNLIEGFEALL
T1 sequence (P52333 822-1111 limits assumed): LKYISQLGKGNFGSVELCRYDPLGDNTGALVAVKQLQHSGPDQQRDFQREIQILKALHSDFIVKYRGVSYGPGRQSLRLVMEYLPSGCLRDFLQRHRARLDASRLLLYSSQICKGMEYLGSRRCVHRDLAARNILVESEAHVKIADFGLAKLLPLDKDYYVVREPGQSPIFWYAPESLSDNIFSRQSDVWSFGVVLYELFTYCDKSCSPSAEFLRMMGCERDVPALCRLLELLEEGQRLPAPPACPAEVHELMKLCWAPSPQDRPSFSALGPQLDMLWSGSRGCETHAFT
T4 sequence (O60674 849-1124 limits assumed): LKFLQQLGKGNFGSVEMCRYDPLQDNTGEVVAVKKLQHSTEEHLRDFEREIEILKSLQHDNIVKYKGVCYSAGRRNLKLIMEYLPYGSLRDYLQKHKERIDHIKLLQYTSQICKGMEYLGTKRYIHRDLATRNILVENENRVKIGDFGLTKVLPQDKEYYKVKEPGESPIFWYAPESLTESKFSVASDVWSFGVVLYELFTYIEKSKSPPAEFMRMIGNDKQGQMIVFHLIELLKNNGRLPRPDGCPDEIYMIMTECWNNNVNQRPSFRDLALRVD

The IC50 is the concentration that gives 50% inhibition. A low value points to greater potency. For the compound `NC(=O)c1cnc(Nc2cccc(N3CCOCC3)c2)cc1NCc1cccc(F)c1` [Example 65, 4-(3-fluorobenzylamino)-6-(3-morpholinophenylamino)nicotinamide], the inhibition at 0.2 µM in assay [1] stood at 28%. Besides, in assay [1], the inhibition at 1 µM was determined as 49%. Besides, the IC50 is 1 to 10 nM against JAK3, 100 to 1000 nM on JAK1, greater than 1000 nM on TYK2 and 10 to 100 nM against JAK2.
Turning to `NC(=O)c1cnc(Nc2ccc(C3CCNCC3)cc2)cc1NCc1cccc(F)c1` [Example 70, 4-(3-fluorobenzylamino)-6-(4-(piperidin-4-yl)phenylamino)nicotinamide], the inhibition at 0.2 µM in assay [1] worked out at 23%. Moreover, the inhibition at 1 µM in assay [1] was 45%. In addition, the IC50 on JAK3 lay within 1 to 10 nM; at JAK1, 100 to 1000 nM; on TYK2, 100 to 1000 nM; against JAK2, 10 to 100 nM.
As to `NC(=O)c1cnc(Nc2ccc(N3CCCCC3=O)cc2)cc1NCc1ccccc1F` [Example 71, 4-(2-fluorobenzylamino)-6-(4-(2-oxopiperidin-1-yl)phenylamino)nicotinamide], the inhibition at 0.2 µM in assay [1] amounted to 22%. The inhibition at 1 µM in assay [1] is 37%. Moreover, the IC50 lay within 1 to 10 nM on JAK3, 100 to 1000 nM against JAK1, 100 to 1000 nM against TYK2 and 100 to 1000 nM against JAK2.
On to `NC(=O)c1cnc(Nc2cccc(OCCN3CCCC3)c2)cc1NCc1ccccc1F` [Example 72, 4-(2-fluorobenzylamino)-6-(3-(2-(pyrrolidin-1-yl)ethoxy)phenylamino)nicotinamide], for which the inhibition at 0.2 µM in assay [1] was 27%. Further, the inhibition at 1 µM in assay [1] was found to be 54%. The IC50 on JAK3 fell in the range of 1 to 10 nM; at JAK1, 100 to 1000 nM; at TYK2, 100 to 1000 nM; against JAK2, 100 to 1000 nM.
On to `NC(=O)c1cnc(Nc2ccc(N3CCOCC3)cc2)cc1NCc1ccccc1F` [Example 73, 4-(2-fluorobenzylamino)-6-(4-morpholinophenylamino)nicotinamide], for which the inhibition at 0.2 µM in assay [1] came to 23%. Further, the inhibition at 1 µM in assay [1] was 53%. For the same compound, the IC50 against JAK3 lay within 1 to 10 nM; against JAK1, 100 to 1000 nM; on TYK2, 100 to 1000 nM; on JAK2, 10 to 100 nM.
Take `NC(=O)c1cnc(Nc2ccc(N3CCCCC3)cc2)cc1NCc1ccccc1F` [Example 74, 4-(2-fluorobenzylamino)-6-(4-(piperidin-1-yl)phenylamino)nicotinamide]: the inhibition at 0.2 µM in assay [1] turned out to be 21%. In addition, the inhibition at 1 µM in assay [1] was 43%. Besides, the IC50 is 10 to 100 nM on JAK3, greater than 1000 nM at JAK1, 100 to 1000 nM against TYK2 and 100 to 1000 nM against JAK2.
As for `NC(=O)c1cnc(Nc2ccc(N3CCCCC3)cc2)cc1N[C@H](CO)c1ccccc1` [Example 75, (S)-4-(2-hydroxy-1-phenylethylamino)-6-(4-(piperidin-1-yl)phenylamino)nicotinamide], in assay [1], the inhibition at 0.2 µM worked out at 11%. Also, in assay [1], the inhibition at 1 µM came out at 26%. The IC50 at JAK3 was 10 to 100 nM; on JAK1, greater than 1000 nM; against TYK2, greater than 1000 nM; on JAK2, greater than 1000 nM.
As to `C[N+]1(C)CCC(c2ccc(Nc3cc(NCc4cccc(F)c4)c(C(N)=O)cn3)cc2)CC1` [Example 78, 4-(4-(5-carbamoyl-4-(3-fluorobenzylamino)pyridin-2-ylamino)phenyl)-1,1-dimethylpiperidinium formate], in assay [1], the inhibition at 1 µM was 14%. Further, the concentration for half-maximal inhibition (IC50) is 1 to 10 nM on JAK3, 100 to 1000 nM against JAK1, 100 to 1000 nM against TYK2 and 10 to 100 nM against JAK2.
In the case of `NC(=O)c1cnc(Nc2ccc(OCC(=O)N3CCOCC3)cc2)cc1NCc1ccccc1` [Example 80, 4-(benzylamino)-6-(4-(2-morpholino-2-oxoethoxy)phenylamino)nicotinamide], the inhibition at 0.2 µM in assay [1] came out at 23%. Moreover, the inhibition at 1 µM in assay [1] came to 43%. Besides, the IC50 at JAK3 is 10 to 100 nM; on JAK1, greater than 1000 nM; on TYK2, greater than 1000 nM; against JAK2, 100 to 1000 nM.
In the case of `NC(=O)c1cnc(Nc2ccc(OCCN3CCCCC3)cc2)cc1NCc1ccccc1` [Example 81, 4-(benzylamino)-6-(4-(2-(piperidin-1-yl)ethoxy)phenylamino)nicotinamide], in assay [1], the inhibition at 0.2 µM amounted to 29%. Further, the inhibition at 1 µM in assay [1] is 48%. In addition, the IC50 at JAK3 was 10 to 100 nM; on JAK1 it was greater than 1000 nM; on TYK2, greater than 1000 nM; against JAK2, 100 to 1000 nM.
With `CN(C)C(=O)c1ccc(Nc2cc(NCc3cc(F)ccc3F)c(C(N)=O)cn2)cc1` [Example 92, 4-(2,5-difluorobenzylamino)-6-(4-(dimethylcarbamoyl)phenylamino)nicotinamide], the inhibition at 0.2 µM in assay [1] is 41%. Also, the inhibition at 1 µM in assay [1] stood at 67%. The IC50 was 1 to 10 nM against JAK3, 100 to 1000 nM on JAK1, 100 to 1000 nM on TYK2 and 10 to 100 nM against JAK2.
With `NC(=O)c1cnc(Nc2ccc(N3CCCCC3=O)cc2)cc1NCc1cc(F)ccc1F` [Example 94, 4-(2,5-difluorobenzylamino)-6-(4-(2-oxopiperidin-1-yl)phenylamino)nicotinamide], the inhibition at 0.2 µM in assay [1] amounted to 35%. In assay [1], the inhibition at 1 µM turned out to be 62%. Further, the IC50 against JAK3 lay within 1 to 10 nM; against JAK1, 100 to 1000 nM; against TYK2, 100 to 1000 nM; on JAK2, 10 to 100 nM.
For `NC(=O)c1cnc(Nc2ccc(C3CCNCC3)cc2)cc1NCc1ccccc1F` [Example 106, 4-(2-fluorobenzylamino)-6-(4-(piperidin-4-yl)phenylamino)nicotinamide], the inhibition at 0.2 µM in assay [1] turned out to be 28%. Further, the inhibition at 1 µM in assay [1] was 49%. The IC50 at JAK3 was in the range of 1 to 10 nM; against JAK1 it was 100 to 1000 nM; against TYK2, 100 to 1000 nM; on JAK2, 100 to 1000 nM.
For `NC(=O)c1cnc(Nc2ccc(C3CCN(C4CCCC4)CC3)cc2)cc1NCc1ccccc1F` [Example 109, 6-(4-(1-cyclopentylpiperidin-4-yl)phenylamino)-4-(2-fluorobenzylamino)nicotinamide], the inhibition at 0.2 µM in assay [1] was found to be 23%. For the same compound, the inhibition at 1 µM in assay [1] was found to be 60%. In addition, the IC50 was 1 to 10 nM at JAK3, 100 to 1000 nM at JAK1, 100 to 1000 nM at TYK2 and 100 to 1000 nM on JAK2.
Consider `CC(=O)N1CCC(c2ccc(Nc3cc(NCc4ccccc4F)c(C(N)=O)cn3)cc2)CC1` [Example 115, 6-(4-(1-acetylpiperidin-4-yl)phenylamino)-4-(2-fluorobenzylamino)nicotinamide], for which the inhibition at 0.2 µM in assay [1] came out at 31%. Besides, the inhibition at 1 µM in assay [1] was found to be 64%. Further, the IC50 against JAK3 is 10 to 100 nM; against JAK1 it was 100 to 1000 nM; against TYK2, 100 to 1000 nM; against JAK2 it was 100 to 1000 nM.
With `COCC(=O)N1CCC(c2ccc(Nc3cc(NCc4ccccc4F)c(C(N)=O)cn3)cc2)CC1` [Example 116, 4-(2-fluorobenzylamino)-6-(4-(1-(2-methoxyacetyl)piperidin-4-yl)phenylamino)nicotinamide], the inhibition at 0.2 µM in assay [1] amounted to 25%. Besides, in assay [1], the inhibition at 1 µM came to 43%. In addition, the IC50 on JAK3 lay in the range of 1 to 10 nM; against JAK1, 100 to 1000 nM; on TYK2, 100 to 1000 nM; against JAK2, 10 to 100 nM.
